Laboratory results reported in ChEMBL document CHEMBL1201862, “PubChem BioAssay data set” (2004).
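Method: 48-hour compound exposure of cells in 96-well plates, five concentrations, linear interpolation of endpoints. GI50 is the concentration that inhibits growth by half.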 The source made the active and inactive calls. No stated cut-off is given here; in the data, active = GI50 up to about 1.1 µM and inactive = higher.

Tests used:
Test in all cases: DTP human tumour cell line panel, 48 h
OVCAR-5 = test system: OVCAR-5
PC-3 = test system: PC-3
SK-MEL-28 = test system: SK-MEL-28
MDA-N = test system: MDA-N
A549 = test system: A549
SK-MEL-5 = test system: SK-MEL-5
HCT-116 = test system: HCT-116
HL-60 = test system: HL-60
SF-268 = test system: SF-268
T47D = test system: T47D
BT-549 = test system: BT-549
MDA-MB-435 = test system: MDA-MB-435
Hs-578T = test system: Hs-578T
SK-MEL-2 = test system: SK-MEL-2
NCI-H226 = test system: NCI-H226
SR = test system: SR

Measured: GI50

Cc1c2c(OCCN3CCCCC3)nn(C)c(=O)c2c(C)n1-c1ccccc1
inactive: OVCAR-5 > 100 µM | PC-3 30.1 µM | SK-MEL-28 25.9 µM | MDA-N 35.1 µM | A549 43.6 µM | SK-MEL-5 16.7 µM | HCT-116 38.6 µM | HL-60 31 µM | SF-268 53.1 µM | T47D 41.2 µM | BT-549 44.4 µM | MDA-MB-435 32.3 µM | Hs-578T 54.1 µM | SK-MEL-2 17 µM | NCI-H226 38 µM

CC1(C)CN(CC(=O)O)CC(Cc2ccc(OCC(=O)O)cc2)N(CC(=O)O)CC(C)(C)SS1 (stereo not drawn)
inactive: OVCAR-5 > 100 µM | PC-3 > 100 µM | SK-MEL-28 > 100 µM | MDA-N > 100 µM | A549 > 100 µM | SK-MEL-5 > 100 µM | HCT-116 > 100 µM | SF-268 > 100 µM | BT-549 > 100 µM | MDA-MB-435 > 100 µM | Hs-578T > 100 µM | SK-MEL-2 > 100 µM | NCI-H226 > 100 µM

O=[N+]([O-])c1ccc(C2NC(=S)NC3c4cc([N+](=O)[O-])ccc4CCCC23)cc1 (stereo not drawn)
inactive: OVCAR-5 > 100 µM | PC-3 55.7 µM | SK-MEL-28 > 100 µM | A549 78.3 µM | SK-MEL-5 > 100 µM | HCT-116 > 100 µM | HL-60 > 100 µM | SF-268 46.8 µM | T47D 35.6 µM | BT-549 38.8 µM | MDA-MB-435 > 100 µM | Hs-578T > 100 µM | SR > 100 µM | SK-MEL-2 > 100 µM | NCI-H226 53.5 µM

C=C1[C@H](OCC(C)C)[C@@H](OCC(C)C)[C@@H](O)C(C)(C)/C=C/[C@H](C)C(=O)[C@@]2(O)C[C@H](C)[C@H](O)[C@@H]2[C@H]1OCC(C)C
inactive: OVCAR-5 > 7.5 µM | PC-3 > 7.5 µM | MDA-N 1.54 µM | SK-MEL-5 7.18 µM | HCT-116 > 7.5 µM | SF-268 6.24 µM | T47D > 7.5 µM | BT-549 > 7.5 µM | MDA-MB-435 3.01 µM | Hs-578T 2.77 µM | SR > 7.5 µM | SK-MEL-2 > 7.5 µM

Cc1ccc(-c2cnc(NC3OC(COC(=O)c4ccccc4)C(OC(=O)c4ccccc4)C(OC(=O)c4ccccc4)C3OC(=O)c3ccccc3)s2)cc1 (stereo not drawn)
inactive: OVCAR-5 61.7 µM | PC-3 > 100 µM | SK-MEL-28 > 100 µM | MDA-N > 100 µM | A549 > 100 µM | SK-MEL-5 > 100 µM | HCT-116 > 100 µM | SF-268 > 100 µM | T47D > 100 µM | BT-549 > 100 µM | MDA-MB-435 > 100 µM | Hs-578T 82 µM | SR > 100 µM | SK-MEL-2 > 100 µM | NCI-H226 > 100 µM

COC(=O)[C@@](C)(COC(=O)C(C)(C)C)NC(=O)OC(C)(C)C
inactive: OVCAR-5 > 100 µM | PC-3 > 100 µM | SK-MEL-28 > 100 µM | MDA-N > 100 µM | A549 > 100 µM | SK-MEL-5 > 100 µM | HCT-116 > 100 µM | SF-268 > 100 µM | T47D > 100 µM | BT-549 > 100 µM | MDA-MB-435 > 100 µM | SR > 100 µM | SK-MEL-2 > 100 µM | NCI-H226 > 100 µM

NC1CC(=O)c2c1sc(Cl)c2Cl (stereo not drawn)
inactive: OVCAR-5 > 100 µM | PC-3 > 100 µM | SK-MEL-28 > 100 µM | MDA-N > 100 µM | A549 > 100 µM | SK-MEL-5 > 100 µM | HCT-116 > 100 µM | HL-60 > 100 µM | SF-268 > 100 µM | T47D > 100 µM | BT-549 > 100 µM | MDA-MB-435 > 100 µM | SR > 100 µM | SK-MEL-2 > 100 µM

O=C(Sc1n[nH]c(=O)[nH]c1=O)c1cccc2nc3ccccc3nc12
inactive: OVCAR-5 > 100 µM | SK-MEL-28 30.7 µM | MDA-N 11.8 µM | A549 4.05 µM | SK-MEL-5 3.41 µM | HCT-116 > 100 µM | HL-60 > 100 µM | SF-268 > 100 µM | T47D > 100 µM | BT-549 8.36 µM | MDA-MB-435 13.7 µM | Hs-578T 20 µM | SR > 100 µM | SK-MEL-2 68.2 µM | NCI-H226 34.4 µM

CCc1n[nH]c(=O)n1/N=C/c1ccccc1Cl
inactive: OVCAR-5 > 100 µM | SK-MEL-28 > 100 µM | MDA-N > 100 µM | A549 > 100 µM | SK-MEL-5 > 100 µM | HCT-116 > 100 µM | HL-60 > 100 µM | SF-268 50 µM | T47D > 100 µM | BT-549 > 100 µM | MDA-MB-435 85.7 µM | Hs-578T 2.69 µM | SR > 100 µM | SK-MEL-2 > 100 µM | NCI-H226 88.5 µM
